In brackets after ≈: the same amount, converted by molar mass.
Tests used:
[1] = molecular target: Adenylate cyclase type 10 (Homo sapiens, UniProt Q96PN6)
Description: Inhibition of human soluble adenylyl cyclase assessed as reduction in cAMP levels in the presence of alpha-32p labeled ATP by biochemical assay

[2] = Octanol-water partition coefficient, logD of the compound at pH 7.4 by HPLC analysis; type: physicochemical
[3] = Kinetic solubility of compound by UV- absorbance analysis
[4] = Permeability of the compound in PRISMA HT buffer at pH 7.4 at 10 umol/L incubated for 3 hrs bt PAMPA based LC/MS/MS analysis; type: ADME; conditions: dose 10 µmol/L, read-out: permeability
[5] = Bioavailability in mouse; type: ADME, organism-based; conditions: in vivo, dose 20 mg/kg
[6] = Cmax in CD1 mouse at 20 mg/kg, ip measured up to 24 hrs; type: ADME, organism-based; set-up: route intraperitoneal, dose 20 mg/kg, time <=24; conditions: in vivo
[7] = Mean residence time in CD1 mouse at 20 mg/kg, po measured up to 24 hrs; type: ADME, organism-based; conditions: in vivo
[8] = Cmax in CD1 mouse at 20 mg/kg, po measured up to 24 hrs; type: ADME, organism-based; set-up: route oral, dose 20 mg/kg, time <=24; conditions: in vivo
[9] = Mean residence time in CD1 mouse at 20 mg/kg, ip measured up to 24 hrs; type: ADME, organism-based; conditions: in vivo
[10] = AUC in CD1 mouse at 20 mg/kg, po measured up to 24 hrs; type: ADME, organism-based; set-up: route oral, dose 20 mg/kg, time <=24; conditions: in vivo
[11] = AUC in CD1 mouse at 20 mg/kg, ip measured up to 24 hrs; type: ADME, organism-based; set-up: route intraperitoneal, dose 20 mg/kg, time <=24; conditions: in vivo
[12] = Clearance in human liver microsomes; type: ADME, Microsome; conditions: read-out: CLH
[13] = Clearance in mouse liver microsomes; type: ADME, Microsome; conditions: read-out: CLH
[14] = Oral bioavailability in mouse; type: ADME, organism-based; conditions: in vivo

Chain of Adenylate cyclase type 10 (Q96PN6 whole entry): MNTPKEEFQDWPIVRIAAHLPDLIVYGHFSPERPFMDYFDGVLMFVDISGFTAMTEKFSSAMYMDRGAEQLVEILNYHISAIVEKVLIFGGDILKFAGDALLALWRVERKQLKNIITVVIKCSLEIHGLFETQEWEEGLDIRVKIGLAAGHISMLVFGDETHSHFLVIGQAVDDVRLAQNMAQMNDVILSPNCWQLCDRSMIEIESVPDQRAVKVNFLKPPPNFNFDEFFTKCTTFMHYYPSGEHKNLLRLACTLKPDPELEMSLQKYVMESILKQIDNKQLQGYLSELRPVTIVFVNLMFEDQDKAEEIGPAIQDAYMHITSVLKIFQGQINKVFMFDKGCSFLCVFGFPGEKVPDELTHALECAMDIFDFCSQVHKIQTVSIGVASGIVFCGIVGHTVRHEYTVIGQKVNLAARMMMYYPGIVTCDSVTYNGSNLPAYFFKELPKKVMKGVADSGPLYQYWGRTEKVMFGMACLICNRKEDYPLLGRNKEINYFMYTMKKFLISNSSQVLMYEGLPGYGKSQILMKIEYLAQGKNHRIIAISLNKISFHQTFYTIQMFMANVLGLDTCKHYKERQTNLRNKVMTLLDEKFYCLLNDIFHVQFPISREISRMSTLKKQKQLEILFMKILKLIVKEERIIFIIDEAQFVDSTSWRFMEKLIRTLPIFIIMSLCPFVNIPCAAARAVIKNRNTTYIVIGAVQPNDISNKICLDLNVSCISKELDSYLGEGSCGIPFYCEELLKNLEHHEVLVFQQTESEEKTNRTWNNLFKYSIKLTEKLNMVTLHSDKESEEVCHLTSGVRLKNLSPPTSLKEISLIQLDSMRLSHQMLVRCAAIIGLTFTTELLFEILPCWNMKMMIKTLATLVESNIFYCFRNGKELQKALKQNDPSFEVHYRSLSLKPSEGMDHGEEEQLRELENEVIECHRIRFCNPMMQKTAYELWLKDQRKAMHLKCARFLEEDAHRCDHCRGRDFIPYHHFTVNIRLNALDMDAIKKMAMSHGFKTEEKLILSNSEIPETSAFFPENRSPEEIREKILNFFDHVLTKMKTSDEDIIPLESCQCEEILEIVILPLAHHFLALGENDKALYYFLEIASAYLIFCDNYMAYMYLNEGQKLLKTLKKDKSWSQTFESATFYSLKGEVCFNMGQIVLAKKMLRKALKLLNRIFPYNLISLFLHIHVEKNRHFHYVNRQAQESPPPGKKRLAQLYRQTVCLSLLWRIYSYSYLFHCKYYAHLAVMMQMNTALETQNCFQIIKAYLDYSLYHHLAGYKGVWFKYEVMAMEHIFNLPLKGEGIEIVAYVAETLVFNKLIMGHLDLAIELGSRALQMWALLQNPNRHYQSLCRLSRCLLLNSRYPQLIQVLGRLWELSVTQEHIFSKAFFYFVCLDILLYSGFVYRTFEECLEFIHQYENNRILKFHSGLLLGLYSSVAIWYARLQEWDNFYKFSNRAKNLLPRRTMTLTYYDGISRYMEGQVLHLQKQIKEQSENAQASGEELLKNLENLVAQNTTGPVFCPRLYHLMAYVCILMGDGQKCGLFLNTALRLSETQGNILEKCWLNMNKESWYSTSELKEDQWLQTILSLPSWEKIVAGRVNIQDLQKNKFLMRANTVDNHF

| IC50 [1] | logD [2] | solubility kinetic [3] | Papp at 3 h, 10 µM [4] | SMILES | further results |
| --- | --- | --- | --- | --- | --- |
| > 1 µM |  |  |  | Cc1cc(-c2nn(C)cc2Cc2cccs2)nc(N)n1 |  |
|  | 2.7 | 0.38 µg/mL (≈ 1.19 µM) | 280 nm/s | Cc1c(Cc2cccs2)c(-c2cc(Cl)nc(N)n2)nn1C |  |
|  | 2.5 | 6.3 µg/mL (≈ 20.6 µM) | 258 nm/s | Cn1cc(Cc2cccs2)c(-c2cc(Cl)nc(N)n2)n1 |  |
| > 10 µM |  |  |  | Cc1c(Cc2ccnn2C)c(-c2cc(Cl)nc(N)n2)nn1C |  |
| > 10 µM |  |  |  | CN(C)Cc1c(Cc2ccccc2)c(-c2cc(Cl)nc(N)n2)nn1C |  |
| > 1 µM |  |  |  | Cc1ccc(Cc2cn(C)nc2-c2cc(Cl)nc(N)n2)s1 |  |
| > 10 µM |  |  |  | CNC(=O)c1c(Cc2ccccc2)c(-c2cc(Cl)nc(N)n2)nn1C |  |
|  | 2.8 | 7.5 µg/mL (≈ 23.6 µM) | 257 nm/s | Cn1cc(Cc2cccc(F)c2)c(-c2cc(Cl)nc(N)n2)n1 |  |
|  |  |  |  | Nc1nc(Cl)cc(N(Cc2cccs2)C2CC2)n1 | microsomal CLint [12]: 360 µL/min/mg; microsomal CLint [13]: > 768 µL/min/mg; bioavailability [14]: < 5% |

| SMILES | IC50 [1] | logD [2] | solubility kinetic [3] | Papp at 3 h, 10 µM [4] | further results |
| --- | --- | --- | --- | --- | --- |
| Cc1c(Cc2ccccc2)c(-c2cc(Cl)nc(N)n2)nn1C |  | 2.9 | 1.3 µg/mL (≈ 4.14 µM) | 274 nm/s | bioavailability [5]: 59%; Cmax [6]: 45 µM; MRT [7]: 3.95 h; Cmax [8]: 15.5 µM; MRT [9]: 2.82 h; AUC at 24 h [10]: 94 µM·h; AUC at 24 h [11]: 72 µM·h |
